Data taken from patent US8097607B2, “Low dose rifalazil compositions” (priority 2002, dated 2012).

Tests used:
[1] = cited from earlier work
mycobacterium species = conditions: 1 to 100 mg once or twice weekly; cited from earlier work
[2] = Clinical trial: pharmacokinetics of rifalazil in plasma after single oral doses; conditions: for AUC / CL/F / Cmax / half-life: male, human, in vivo, po; for half-life / K10 / K12 / K21 / V1/F / Vdβ/F: males

CO[C@H]1/C=C/O[C@@]2(C)Oc3c(C)c(O)c4c(=O)c(c5oc6cc(N7CCN(CC(C)C)CC7)cc(O)c6nc-5c4c3C2=O)NC(=O)/C(C)=C\C=C\[C@H](C)[C@H](O)[C@@H](C)[C@@H](O)[C@@H](C)[C@H](OC(C)=O)[C@@H]1C [rifalazil, Rifalazil]
incidence of adverse reactions (headaches, fevers, flu-like symptoms) ([1]; 1 to 100 mg once or twice weekly): reduced, but did not eliminate | adverse reactions ([1]; clinical trials, daily administration, 10 mg per day to 10 g per day): many adverse reactions occurred | efficacy against mycobacterium species (mycobacterium species): efficacious | AUC ([2]; 2.5 mg): 185 ng·h/mL | CL/F ([2]; 2.5 mg): 3 mL/min/kg | Cmax ([2]; 2.5 mg): 7.9 ng/mL | half-life ([2]; 2.5 mg, Absorption t½, single 2.5 mg oral dose): 0.67 h | half-life ([2]; 2.5 mg, Distribution t½, single 2.5 mg oral dose): 7.3 h | half-life ([2]; 2.5 mg, Elimination t½, single 2.5 mg oral dose): 139 h | AUC ([2]; 50 mg): 1350 ng·h/mL | CL/F ([2]; 50 mg): 8.17 mL/min/kg | Cmax ([2]; 50 mg): 57.3 ng/mL | half-life ([2]; 50 mg, Absorption t½, single 50 mg oral dose): 0.5 h | half-life ([2]; 50 mg, Distribution t½, single 50 mg oral dose): 11.6 h | half-life ([2]; 50 mg, Elimination t½, single 50 mg oral dose): 116 h | K10 ([2]; single 2.5 mg oral dose): 0.045 h⁻¹ | K12 ([2]; single 2.5 mg oral dose): 0.044 h⁻¹ | K21 ([2]; single 2.5 mg oral dose): 0.011 h⁻¹ | V1/F ([2]; single 2.5 mg oral dose): 4.08 L/kg | Vdβ/F ([2]; single 2.5 mg oral dose): 36.0 L/kg | K10 ([2]; single 50 mg oral dose): 0.039 h⁻¹ | K12 ([2]; single 50 mg oral dose): 0.018 h⁻¹ | K21 ([2]; single 50 mg oral dose): 0.009 h⁻¹ | V1/F ([2]; single 50 mg oral dose): 12.7 L/kg | Vdβ/F ([2]; single 50 mg oral dose): 82.4 L/kg
